Drawing on PubChem BioAssay (NCI), this text covers TGI for 13 molecules.

Among the test systems are 786-0 renal; ACHN renal; CAKI-1 renal; HCT-15 colon; LOX IMVI melanoma; MALME-3M melanoma; NCI-H522 lung; SR leukemia; SW-620 colon; TK-10 renal.
Holding throughout (assay): growth of human tumour cells (NCI), 48 h

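Each compound was tested at five concentrations against cells in 96-well plates for 48 hours. Definition used: TGI = concentration required for complete inhibition of growth.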

On to `O=Cc1cc(O)c(O)c(/C=N/n2c3ccccc3c3ccccc32)c1`, for which the TGI in the assay on 786-0 renal is 20.7 µM; with ACHN renal, 21.1 µM; in the assay with CAKI-1 renal, 36.6 µM; with HCT-15 colon, 19.4 µM; in the assay with LOX IMVI melanoma, greater than 100 µM; in the assay with MALME-3M melanoma it was 30.8 µM. Moreover, the TGI is 7.03 µM in the assay on NCI-H522 lung, 21.4 µM in the assay on SR leukemia, 44.7 µM in the assay on SW-620 colon and 82 µM in the assay on TK-10 renal.

With `COc1cccc(/C=N/n2c(Cc3ccc(Cl)cc3)n[nH]c2=O)c1`, the TGI was greater than 71.9 µM in the assay on 786-0 renal; 67.3 µM in the assay with ACHN renal; greater than 81.9 µM in the assay with CAKI-1 renal; greater than 100 µM in the assay on HCT-15 colon; greater than 100 µM in the assay on LOX IMVI melanoma; greater than 100 µM in the assay with MALME-3M melanoma. The TGI is 50.6 µM with NCI-H522 lung, greater than 100 µM in the assay with SR leukemia, greater than 100 µM in the assay with SW-620 colon and greater than 100 µM in the assay on TK-10 renal.

`CCOC(=O)O/N=C1/C(c2c(O)[nH]c3ccccc23)=Nc2ccccc21`: the TGI with 786-0 renal was 28 µM; in the assay with ACHN renal, 33.1 µM; in the assay with CAKI-1 renal it was 14.5 µM; with HCT-15 colon it was 20.4 µM; with LOX IMVI melanoma, 26.6 µM; in the assay with MALME-3M melanoma, 22.1 µM. For the same molecule, the TGI in the assay on NCI-H522 lung is 30.2 µM; in the assay on SR leukemia, greater than 100 µM; with SW-620 colon it was greater than 100 µM; in the assay on TK-10 renal, 24 µM.

For `CC(C)(CN1CCCCC1)C(=O)/C=C/c1c(Cl)cccc1Cl`, the TGI in the assay on 786-0 renal was 2.89 µM; in the assay with ACHN renal it was 3.28 µM; in the assay with CAKI-1 renal, 2.78 µM; in the assay with HCT-15 colon, 2.28 µM; with LOX IMVI melanoma, 2.68 µM; in the assay on MALME-3M melanoma it was 2.16 µM. Further, the TGI is 0.913 µM with NCI-H522 lung, greater than 100 µM in the assay with SR leukemia, 2.29 µM with SW-620 colon and 1.77 µM with TK-10 renal.

In the case of `Cc1nc2sccn2c1C(=O)OCCOCCOCCOCCOC(=O)c1c(C)nc2sccn12`, the TGI in the assay with 786-0 renal, in the assay with ACHN renal, with CAKI-1 renal, with HCT-15 colon, in the assay on LOX IMVI melanoma and in the assay on MALME-3M melanoma was greater than 100 µM throughout. In addition, the TGI in the assay on NCI-H522 lung, with SR leukemia, in the assay with SW-620 colon and in the assay on TK-10 renal was greater than 100 µM each time.

On to `Cc1nc(N)nc(N)c1N1CCN(Cc2ccccc2)CC1`, for which the TGI was greater than 100 µM in the assay on 786-0 renal; greater than 100 µM in the assay with ACHN renal; greater than 100 µM in the assay on CAKI-1 renal; greater than 100 µM in the assay with HCT-15 colon; greater than 100 µM in the assay with LOX IMVI melanoma; greater than 69 µM with MALME-3M melanoma. Moreover, the TGI is greater than 93.5 µM in the assay on NCI-H522 lung, greater than 100 µM in the assay on SR leukemia, greater than 100 µM with SW-620 colon and greater than 100 µM in the assay on TK-10 renal.

With `CCOC(=O)/C=C(/C(=O)OCC)n1ccc(=O)[nH]c1=O`, the TGI in the assay on 786-0 renal came to 11.3 µM; in the assay with ACHN renal it was 14.6 µM; with CAKI-1 renal, 2.3 µM; in the assay with HCT-15 colon, 9.39 µM; in the assay on LOX IMVI melanoma it was 22.3 µM; in the assay with MALME-3M melanoma it was 4.4 µM. Moreover, the TGI was determined as 2.72 µM in the assay on NCI-H522 lung, 16.8 µM with SR leukemia, 3.99 µM in the assay on SW-620 colon and 10.5 µM in the assay with TK-10 renal.

On to `C/C(NC(=O)c1ccccc1)=C(/C(=O)c1ccccc1)[C@@H]1OC(C)(C)O[C@@H]1[C@H]1COC(C)(C)O1`, for which the TGI in the assay on 786-0 renal is 39.7 µM; in the assay on ACHN renal, greater than 100 µM; with CAKI-1 renal, greater than 100 µM; in the assay on HCT-15 colon, greater than 100 µM; in the assay on LOX IMVI melanoma, 45.5 µM; in the assay with MALME-3M melanoma, greater than 100 µM. The TGI in the assay with NCI-H522 lung is 36 µM; in the assay with SR leukemia, 38.5 µM; in the assay with SW-620 colon it was 55.1 µM; in the assay on TK-10 renal it was greater than 100 µM.

On to `C=CCc1cccc2cc(C(=O)Nc3nc(C45CC6CC(CC(C6)C4)C5)cs3)c(=O)oc12`, for which the TGI is 54.6 µM in the assay on 786-0 renal; 33.9 µM with ACHN renal; 41.4 µM with CAKI-1 renal; greater than 100 µM in the assay on HCT-15 colon; 42.8 µM in the assay on LOX IMVI melanoma; greater than 100 µM with MALME-3M melanoma. The TGI in the assay on NCI-H522 lung is greater than 100 µM; in the assay on SR leukemia it was greater than 100 µM; in the assay on SW-620 colon it was greater than 100 µM; with TK-10 renal, 89.8 µM.

As for `COc1cc(C)cc(OC)c1/C=C/C(=O)O`, the TGI with 786-0 renal, in the assay on ACHN renal, with CAKI-1 renal, in the assay on HCT-15 colon, with LOX IMVI melanoma and in the assay with MALME-3M melanoma was greater than 100 µM in each case. The TGI with NCI-H522 lung, in the assay on SR leukemia, with SW-620 colon and with TK-10 renal was greater than 100 µM in each case.

In the case of `C=C1[C@H](OCC(C)C)[C@@H](OC(=O)C(C)CC)[C@@H](O)C(C)(C)/C=C/[C@H](C)C(=O)[C@@]2(O)C[C@H](C)[C@H](O)[C@@H]2[C@H]1OC(=O)C(C)CC` (stereo not given in full), the TGI in the assay on 786-0 renal was greater than 20 µM; in the assay with ACHN renal it was greater than 13 µM; in the assay with CAKI-1 renal, greater than 18.7 µM; in the assay on HCT-15 colon, greater than 20 µM; in the assay with LOX IMVI melanoma, greater than 13.3 µM; in the assay on MALME-3M melanoma, greater than 20 µM. The TGI with NCI-H522 lung is greater than 20 µM; in the assay on SR leukemia, greater than 10.5 µM; in the assay on SW-620 colon it was greater than 20 µM; in the assay with TK-10 renal it was greater than 19.3 µM.

On to `COC1=CCC2=C(CCN(C(=O)C3CCC3)C2Cc2ccc(OC)c(O)c2)C1` (stereo not given), for which the TGI in the assay with 786-0 renal was 47.4 µM; in the assay on ACHN renal, greater than 100 µM; in the assay on CAKI-1 renal, greater than 100 µM; in the assay with HCT-15 colon, 25.1 µM; in the assay on LOX IMVI melanoma it was greater than 100 µM; in the assay on MALME-3M melanoma, greater than 100 µM. For the same molecule, the TGI was 42 µM in the assay on NCI-H522 lung, greater than 100 µM in the assay on SR leukemia, greater than 100 µM in the assay on SW-620 colon and 64.5 µM in the assay on TK-10 renal.

Turning to `CN(/N=C/c1ccc(Cl)c(Cl)c1)C1=NCCN1`, the TGI is 34.2 µM in the assay with 786-0 renal; greater than 100 µM in the assay with ACHN renal; 37.8 µM with CAKI-1 renal; greater than 100 µM with HCT-15 colon; 27.7 µM in the assay on LOX IMVI melanoma; 36.9 µM in the assay with MALME-3M melanoma. The TGI is 27.8 µM in the assay with NCI-H522 lung, 86.7 µM in the assay on SR leukemia, 54.4 µM in the assay with SW-620 colon and greater than 100 µM with TK-10 renal.
